According to patent US8541373B2, “BChE albumin fusions for the treatment of cocaine abuse” (priority 2009, dated 2013):
Read-outs that look alike come from different tables or passages of the source.

How the values were obtained:
[1] = Clinical study: safety, tolerability and immunogenicity of single IM AlbuBChE; assay type: in vivo, human; conditions: humans
Protocol: Forty (40) non-treatment seeking healthy adults who have used cocaine are randomly assigned to five (5) treatment groups. Each group will contain eight subjects. • Group A (low dose): Subjects receive a single, intramuscular injection of 50 mg of AlbuBChE. • Group B (intermediate dose): Subjects receive a single, intramuscular injection of 100 mg of AlbuBChE. • Group C (high-intermediate dose): Subjects receive a single, intramuscular injection of 150 mg of AlbuBChE. • Group D (high dose): Subjects receive a single, intramuscular injection of 300 mg of AlbuBChE. • Group E (negative control): Subjects receive a single, intramuscular injection of placebo.
Vital signs, including blood pressure, heart rate (part of the PD parameters) and body temperature are monitored. […]. Telemetry is performed for 4 hours immediately after each cocaine injection.
Local tolerability and pain (evaluated by the visual analogue scale (VAS)) at the injection site are evaluated during the first 24 h after dosing. Timepoints are: 20 min, 1, 2, 4, 8 and 24 hours post AlbuBChE dose.
Samples for immunogenic levels are collected but are not all necessarily assayed. Titers for antibodies against HSA, human butyryl cholinesterase (hBChE) and AlbuBChE are evaluated. Sampling timepoints are: pre-dose and 168 hours (Day 8), 240 hours (Day 11) and follow-up (Day 18±2) post-dose. The blood tests for IG assays take place before administration of cocaine (where relevant).

cocaine [2] = test: Effect of AlbuBChE pretreatment on cocaine-induced cardiovascular and body temperature changes; assay type: in vivo, cynomolgus monkeys
Protocol: The effect of pretreatment with AlbuBChE prior to cocaine dose on CV parameters was tested on the second group (Group 2) of animals (3 males and 3 females). First baseline CV parameters were recorded on SD 15 after an IM administration of AlbuBChE formulation buffer followed by a single IV administration of saline (cocaine vehicle), 3 hours later. The effect of cocaine on CV parameters was measured on SD 18, on which the animals received a single IM injection of AlbuBChE formulation buffer followed by a single IV dose of cocaine (1 mg/kg, IV), 3 hours later.
The effect of pretreatment with AlbuBChE on cocaine-induced changes in CV parameters was monitored on SD 22. CV parameters were recorded subsequent to a single IM dose of AlbuBChE (15 mg/kg) followed by a single IV dose of cocaine (1 mg/kg), 3 hours later (see Table 21).

[3] = rats, i.v. injection, cited from earlier work
cocaine [4] = test: AlbuBChE PK/PD analysis, direct inhibitory effect Emax model (cocaine concentration at 5 min); conditions: Squirrel monkeys, cocaine at 5 min, approximate estimate
Protocol: In spite of the limited amount of data, an attempt was made to characterize PK/PD relationship. The computer software WinNonlin Professional (Version 4.0.1 Pharsight Corporation, USA) was used. Specifically the direct Inhibitory Effect Emax model was use in which Emax was assumed at AlbuBChE concentration of zero. The model equation can be described as follows: E=Emax*(1−(C/(C+EC50)))
The PD parameter used in the analysis was cocaine plasma concentration at 5 min post-cocaine dose. PK parameters used in the model were AlbuBChE plasma concentrations at 2, 72 and 96 hr post-AlbuBChE dose. Due to the fact that AlbuBChE concentration was not measured at 2 hr post-AlbuBChE dose, the 1st time sample collected was used in the analysis (24 hr post-AlbuBChE dose) with the assumptions that AlbuBChE concentration at 24 hr post AlbuBChE dose may reflect AlbuBChE concentration at 2 hr post AlbuBChE dose.

[5] = 15 mg/kg IM 3 hours before cocaine 1 mg/kg IV

For AlbuBChE, the “Local tolerability and pain at the IM injection site” value [1] was “acceptable”, the Immune response ([1]; 50 mg to 300 mg single dose) was “does not provoke a significant immune response” and the Safety ([1]; IM doses of 50 mg to 300 mg) was “No significant safety issues are observed”. For the same substance, the Tolerability ([1]; IM doses of 50 mg to 300 mg) was “well tolerated”, the “Blood pressure after AlbuBChE” value ([1]; intramuscular injection) was “a significant increase in blood pressure is not observed” and the “Maximum blood pressure after cocaine” value (cocaine [2]; [5]) was “decreased”. The “Truncation of time to reversal of blood pressure effect” value (cocaine [2]; [5]) was 4.5 fold, the “Time to reversal of cocaine-induced increase in mean arterial blood pressure” value (cocaine [2]; 15 mg/kg IM 3 hours before cocaine 1 mg/kg IV (77 minutes with cocaine alone)) was 17 min and the “Body temperature after cocaine” value (cocaine [2]; 15 mg/kg IM pre-treatment, cocaine 1 mg/kg IV, base line 38° C. (38.7° C. with cocaine alone)) was 38.3 °C. The “Cocaine-induced increase in heart rate” value (cocaine [2]; 15 mg/kg pre-treatment, cocaine 1 mg/kg IV (70% with cocaine alone)) was 30%, the “Time for heart rate to return to baseline after cocaine dose” value (cocaine [2]; 15 mg/kg pre-treatment, cocaine 1 mg/kg IV (2 hours with cocaine alone)) was 30 min and the “Peak heart rate after cocaine” value (cocaine [2]; 15 mg/kg pre-treatment, cocaine 1 mg/kg IV, baseline 140 (240 with cocaine alone)) was 182 beats/min. For the same substance, the Plasma half-life [3] was “approximately 8 hours”, the Plasma half-life ([3]; listed as BChE-albumin fusion) was 8 h and the “AlbuBChE serum concentration that may result in 50% decrease in cocaine concentration (EC50)” value (cocaine [4]) was ~0.4 µg/mL.
